Measurements reported in the supplement of paper PMC10627819.

Assays:
[1] = test system: S. pneumoniae D39V; experiment: fitness (endpoint OD595 vs no drug) (fraction); higher = more growth
Procedure, shortened: (§1)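 With the first reading as background, OD595 was measured every 30 min for 14 h in 384-well plates kept at 37 °C and inoculated at OD595 0.01. TSB, LB Lennox or CY was the medium. Fitness is the optical density at the transition into stationary phase divided by the robust mean of no-drug control wells, with a cap of 1.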

[2] = test system: B. subtilis 168; experiment: as above
Procedure, shortened: as §1

[3] = test system: S. pneumoniae D39V; experiment: Bliss interaction score (quartile over a dose matrix) (fitness difference); higher = more antagonism (negative = synergy)
Procedure, shortened: (§2)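 The Bliss score is observed minus expected fitness, where expected fitness is the product of the single-drug fitness values inferred from the combination data. Fitness is the OD595 at the onset of stationary phase over the plate's robust no-drug mean, capped at 1. Scores are summarised by quartiles over technical, biological and donor/recipient replicates.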

[4] = test system: B. subtilis 168; experiment: as above
Procedure, shortened: as §2

[5] = test system: S. aureus DSM 20231; experiment: as above
Procedure, shortened: as §2

[6] = test system: S. aureus Newman; experiment: as above
Procedure, shortened: as §2
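Throughout, for Bliss interaction score (quartile over a dose matrix): first quartile when negative (synergy) and third quartile when positive (antagonism).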
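Throughout, for fitness (endpoint OD595 vs no drug): OD595 on entry to stationary phase over no-drug wells; at most 1.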

CO/N=C(\C(=O)N[C@@H]1C(=O)N2C(C(=O)O)=C(COC(C)=O)CS[C@H]12)c1csc(N)n1 [Cefotaxime] + C[C@H]1c2cccc(O)c2C(=O)C2=C(O)[C@]3(O)C(=O)C(C(N)=O)=C(O)[C@@H](N(C)C)[C@@H]3[C@@H](O)[C@@H]21 [Doxycycline]
fitness, one replicate
Conditions | first compound 0.0018 µg/mL | first compound 0.0035 µg/mL | first compound 0.007 µg/mL | first compound 0.00775 µg/mL | first compound 0.0155 µg/mL | first compound 0.031 µg/mL | first compound 0.0625 µg/mL | first compound 0.125 µg/mL | first compound 0.25 µg/mL
[1], partner 0.003875 µg/mL | ≥ 1 | ≥ 1 | 0.866 | – | – | – | – | – | –
[1], partner 0.00775 µg/mL | ≥ 1 | 0.974 | 0.888 | – | – | – | – | – | –
[2], partner 0.02 µg/mL | – | – | – | 0.855 | 0.698 | 0.508 | 0.608 | 0.538 | 0.467
[2], partner 0.04 µg/mL | – | – | – | 0.665 | 0.523 | 0.377 | 0.511 | 0.366 | 0.304
[2], partner 0.08 µg/mL | – | – | – | 0.278 | 0.0446 | 0.0311 | 0.343 | 0.209 | 0.252

fitness
Conditions | first compound 0.0018 µg/mL | first compound 0.0035 µg/mL | first compound 0.007 µg/mL | first compound 0.5 µg/mL | first compound 1 µg/mL | first compound 2 µg/mL
[1], partner 0.0155 µg/mL | 0.955 | 0.943 | 0.864 | – | – | –
[1], partner 0.031 µg/mL | 0.814 | 0.801 | 0.794 | – | – | –
[2], partner 0.02 µg/mL | – | – | – | 0.288 | 0.198 | 0.157
[2], partner 0.04 µg/mL | – | – | – | 0.204 | 0.086 | 0.0899
[2], partner 0.08 µg/mL | – | – | – | 0.0692 | 0.0318 | 0.0723

Conditions | Bliss interaction score
[3] | 0.0963
[4] | 0.0737
[5] | 0.141
[6] | 0.0304

CO/N=C(\C(=O)N[C@@H]1C(=O)N2C(C(=O)O)=C(COC(N)=O)CS[C@H]12)c1ccco1 [Cefuroxime] + C[C@H]1COc2c(N3CCN(C)CC3)c(F)cc3c(=O)c(C(=O)O)cn1c23 [Levofloxacin]
fitness, [2], one replicate
Conditions | first compound 0.04875 µg/mL | first compound 0.0975 µg/mL | first compound 0.195 µg/mL | first compound 0.39 µg/mL | first compound 0.78 µg/mL | first compound 1.562 µg/mL | first compound 3.125 µg/mL | first compound 6.25 µg/mL
partner 0.001 µg/mL | – | – | 0.284 | 0.15 | 0.156 | – | – | –
partner 0.002 µg/mL | 0.503 | 0.466 | – | 0.146 | 0.112 | – | – | –
partner 0.0039 µg/mL | 0.498 | 0.456 | – | 0.127 | 0.0881 | – | – | –
partner 0.0078 µg/mL | 0.432 | 0.397 | 0.334 | – | – | – | – | –
partner 0.0312 µg/mL | 0.055 | 0.0225 | 0.0495 | – | – | 0.0432 | 0.0263 | 0.0208
partner 0.0625 µg/mL | 0.0626 | 0.0281 | 0.0412 | – | – | 0.0291 | 0.027 | 0.0162
partner 0.125 µg/mL | 0.0489 | 0.0206 | 0.0412 | – | – | 0.0267 | 0.0197 | 0.0093

[2], first compound 0.195 µg/mL
Conditions | fitness
partner 0.002 µg/mL | 0.291
partner 0.0039 µg/mL | 0.267

Conditions | Bliss interaction score
[3] | 0.0603
[4] | -0.0899
[5] | -0.22
[6] | -0.146

CO/N=C(\C(=O)N[C@@H]1C(=O)N2C(C(=O)O)=C(COC(N)=O)CS[C@H]12)c1ccco1 [Cefuroxime] + C[C@H]1c2cccc(O)c2C(=O)C2=C(O)[C@]3(O)C(=O)C(C(N)=O)=C(O)[C@@H](N(C)C)[C@@H]3[C@@H](O)[C@@H]21 [Doxycycline]
fitness, [2]
Conditions | first compound 0.04875 µg/mL | first compound 0.0975 µg/mL | first compound 0.195 µg/mL
partner 0.02 µg/mL | 0.663 | 0.603 | 0.514
partner 0.04 µg/mL | 0.6 | 0.525 | 0.358
partner 0.08 µg/mL | 0.174 | 0.14 | 0.12

fitness, [2], one replicate
Conditions | first compound 0.39 µg/mL | first compound 0.78 µg/mL | first compound 1.562 µg/mL | first compound 3.125 µg/mL | first compound 6.25 µg/mL
partner 0.02 µg/mL | 0.488 | 0.451 | 0.441 | 0.424 | 0.393
partner 0.04 µg/mL | 0.313 | 0.298 | 0.239 | 0.148 | 0.0995
partner 0.08 µg/mL | 0.236 | 0.225 | 0.0559 | 0.0405 | 0.0345

Conditions | Bliss interaction score
[3] | 0.0445
[4] | 0.105
[5] | -0.257
[6] | -0.0377

O=C(O)c1cn(C2CC2)c2cc(N3CCNCC3)c(F)cc2c1=O [Ciprofloxacin] + CC(=O)NC[C@H]1CN(c2ccc(N3CCOCC3)c(F)c2)C(=O)O1 [Linezolid]
Conditions | fitness
[1], first compound 0.125 µg/mL, partner 0.105 µg/mL | 0.788
[1], first compound 0.125 µg/mL, partner 0.2 µg/mL | 0.567
[1], first compound 0.125 µg/mL, partner 0.21 µg/mL | 0.712
[1], first compound 0.125 µg/mL, partner 0.4 µg/mL | 0.298
[1], first compound 0.125 µg/mL, partner 0.42 µg/mL | 0.536
[1], first compound 0.125 µg/mL, partner 0.8 µg/mL | 0.146
[1], first compound 0.25 µg/mL, partner 0.105 µg/mL | 0.776
[1], first compound 0.25 µg/mL, partner 0.21 µg/mL | 0.7
[1], first compound 0.25 µg/mL, partner 0.42 µg/mL | 0.551
[1], first compound 0.5 µg/mL, partner 0.105 µg/mL | 0.61
[1], first compound 0.5 µg/mL, partner 0.2 µg/mL | 0.443
[1], first compound 0.5 µg/mL, partner 0.21 µg/mL | 0.569
[1], first compound 0.5 µg/mL, partner 0.4 µg/mL | 0.252
[1], first compound 0.5 µg/mL, partner 0.42 µg/mL | 0.414
[1], first compound 0.5 µg/mL, partner 0.8 µg/mL | 0.119
[2], first compound 0.0195 µg/mL, partner 0.125 µg/mL | 0.609
[2], first compound 0.0195 µg/mL, partner 0.5 µg/mL | 0.334
[2], first compound 0.039 µg/mL, partner 0.125 µg/mL | 0.394
[2], first compound 0.039 µg/mL, partner 0.5 µg/mL | 0.263

one replicate
Conditions | fitness
[1], first compound 0.25 µg/mL, partner 0.2 µg/mL | 0.442
[1], first compound 0.25 µg/mL, partner 0.4 µg/mL | 0.28
[1], first compound 0.25 µg/mL, partner 0.8 µg/mL | 0.154
[2], first compound 0.0098 µg/mL, partner 0.0625 µg/mL | 0.889
[2], first compound 0.0195 µg/mL, partner 0.0625 µg/mL | 0.856
[2], first compound 0.039 µg/mL, partner 0.0625 µg/mL | 0.417

Conditions | Bliss interaction score
[3] | 0.0563
[4] | 0.247
[5] | 0.0785
[6] | 0.081
